Measured values as given in patent US11331327B2, “Antibacterial use of halogenated salicylanilides” (UNION therapeutics A/S, priority 2014, dated 2022).
Values joined by “and” are separate entries in the source; they are usually repeats but may differ in a detail not shown here. Equal values may be shown once. Read-outs that look alike come from different tables or passages of the source. Marks after values point to notes of the source that are not given here.

Tests used:
[1] = tested on: MRSA 01, MRSA 15, MRSA 16; assay: Mutational frequency evaluation, Example 3; format: cell-based, Staphylococcus aureus; conditions: for Frequency of spontaneous mutations conferring resistance: strain MRSA 01, average of 10 replicates; for mutation frequency at MIC×1: no colony grew
Protocol: Strains were conserved in Luria Bertani (LB) Broth supplemented with glycerol 15% (v/v) at −80° C., and reactivated by isolation on LB agar plates. Strains were cultivated aerobically in Mueller Hinton (MH) Broth-cation adjusted at 37° C.
The frequency of spontaneous single-step mutations was determined on the 3 different strains as described by Drago et al. (2005) and Pannu et al. (2011). […] Adequate dilutions were plated on plates without the compound.
Viable cell growth was enumerated after 48 hours of incubation at 37° C.
The spontaneous resistance frequency for an isolate-drug combination was calculated from the number of colonies that grew on plates containing drug versus the number of colonies that grew on drug-free agar.
Ten replicates were carried out for each strain and fusidic acid, mupirocin and retapamulin were used as controls for the MRSA 01 strain.

[2] = cited from earlier work
S. aureus strains = assay: Minimum Inhibitory Concentration (MIC) assay, Example 1, S. aureus strains; format: cell-based; conditions: Staphylococcus aureus
Protocol: (§1) Strains were conserved in Luria Bertani (LB) Broth (S. aureus) or Brain Heart Infusion (BHI) (S. pyogenes) supplemented with glycerol 15% (v/v) at −80° C., and reactivated by isolation on LB (S. aureus) or BHI (S. pyogenes) agar plates. Strains were cultivated in Mueller Hinton (MH) Broth-cation adjusted (S. aureus) supplemented with lysed horse blood 2.5% (v/v) (S. pyogenes). All strains were cultivated at 37° C., aerobically for S. aureus strains.
(§2) Bacterial cultures were stopped in their exponential growth phase and plates were inoculated with the approximate concentration of 10^3 cells per well. Plates were incubated at 37° C. for 18 hours (S. aureus) or 24 hours (S. pyogenes). Optical density at a wavelength of 600 nm was measured at the end of the incubation time. […] Experiments were performed at least as triplicate biological replicates with all strains.

[3] = tested on: quorum sensing response in P. aeruginosa; conditions: reduction of quorum sensing response in P. aeruginosa; cited from earlier work
S. pyogenes strains = assay: Minimum Inhibitory Concentration (MIC) assay, Example 1, S. pyogenes strains; format: cell-based, Streptococcus pyogenes
Protocol: as §1, §2

[4] = cats, p.o.; cited from earlier work
[5] = tested on: Streptococcus pyogenes strains; assay: MIC assay, Example 2, S. pyogenes strains (in BHI); format: cell-based
Protocol: Strains were conserved in Luria Bertani (LB) Broth (S. aureus) or Brain Heart Infusion (BHI) (S. pyogenes) supplemented with glycerol 15% (v/v) at −80° C., and reactivated by isolation on LB (S. aureus) or BHI (S. pyogenes) agar plates. Strains were cultivated in Mueller Hinton (MH) Broth-cation adjusted (S. aureus) or BHI (S. pyogenes). All strains were cultivated aerobically (microaerobically for S. pyogenes strains) at 37° C. […] Bacterial cultures were stopped in their exponential growth phase and plates were inoculated with the approximate concentration of 5×10^5 cells per well.

P. aeruginosa = conditions: cited from earlier work
MRSA 01 [6] = assay: Colony-forming unit (CFU) in skin lesions of mice challenged with MRSA 01; format: in vivo, Staphylococcus aureus; conditions: female Balb/c mice, MRSA 01 skin lesion, topical twice daily for three days, Experiment 1
Protocol: Three animal studies were performed with niclosamide and fusidic acid as comparison with different formulations and doses.
In each experiment, female Balb/c mice received a skin lesion approximately 1 cm^2 and were challenged with 1.5×10^8 cfu MRSA 01 topically. Twenty-four hours after the wound formation and the contamination, mice were treated topically with 0.05 ml twice daily for three days. Mice were sacrificed on day 4, skin lesions were excised and cfu quantitated. Fusidin ointment (2% from Leo Pharma) was included as control.

MRSA 01 [7] = assay: Time-kill assay; format: cell-based, Staphylococcus aureus; conditions: niclosamide 4 μg/ml (MIC×10), initial inoculum 7 log10 cfu/ml
Protocol: Assay was performed in 20 ml of medium. It included a negative control (medium without bacteria), a positive control (bacteria grown without niclosamide) and the assay (bacteria grown with niclosamide). […] This experiment was performed with the primary test microorganism indicated above.
The overnight culture was stopped and OD600 was measured. Culture was then diluted in indicated medium to obtain an OD600 of 0.25 in order to have about 5×10^8 cfu/ml. Two hundred μl of this diluted culture were then added in all conditions except in the negative control. Initial bacterial concentration was about 5×10^6 cfu/ml. Tubes were incubated aerobically at 37° C. for 24 hours.
Bacteria were enumerated before the incubation, after 30 minutes, 1, 2, 4, 8 and 24 hours of incubation by serial dilutions in NaCl 0.9% and plating on LB agar, with 2 plates per dilution. Plates were incubated at 37° C. and colonies enumerated after 24 hours.

[8] = S. pyogenes strains with MIC 0.0625 μg/ml
[9] = S. pyogenes strains with MIC 0.5 μg/ml
[10] = S. pyogenes strains with MIC […]

SMILES: CC(=O)O[C@H]1C[C@@]2(C)[C@@H](C[C@@H](O)[C@H]3[C@@]4(C)CC[C@@H](O)[C@@H](C)[C@@H]4CC[C@@]32C)/C1=C(\CCC=C(C)C)C(=O)O [Fusidic acid]
- mutational frequency at MIC×1 ([1]; MRSA 01): ≥ 4.10^−5
- mutational frequency at MIC×10 ([1]; MRSA 01): 3.10^−7
- Frequency of spontaneous mutations conferring resistance ([1]; concentration MIC × 1): ≥4.10^−5
- Frequency of spontaneous mutations conferring resistance ([1]; concentration MIC × 2): 2.10^−5
- Frequency of spontaneous mutations conferring resistance ([1]; concentration MIC × 4): 1.10^−6
- Frequency of spontaneous mutations conferring resistance ([1]; concentration MIC × 10): 3.10^−7

SMILES: C/C(=C\C(=O)OCCCCCCCCC(=O)O)C[C@@H]1OC[C@H](C[C@@H]2O[C@H]2[C@@H](C)[C@H](C)O)[C@@H](O)[C@H]1O [Mupirocin]
- Frequency of spontaneous mutations conferring resistance ([1]; concentration MIC × 1): ≥4.10^−5
- Frequency of spontaneous mutations conferring resistance ([1]; concentration MIC × 2): 8.10^−8
- Frequency of spontaneous mutations conferring resistance ([1]; concentration MIC × 4): 1.10^−8
- Frequency of spontaneous mutations conferring resistance ([1]; concentration MIC × 10): ≤4.10^−9

SMILES: O=C(Nc1ccc([N+](=O)[O-])cc1Cl)c1cc(Cl)ccc1O [Niclosamide, 5-chloro-N-(2-chloro-4-nitrophenyl)-2-hydroxybenz-amide]
- LD50 mice p.o ([2]; Table 3): >1500 mg/kg
- LD50 ([2]; mice, p.o.): > 5000 mg/kg
- MIC (S. aureus strains; S. aureus strains, read-out: Mic100 S. aureus): ≤ 0.4 µg/mL and ≤ 1.25 µM
- MIC (S. aureus strains; against S. aureus strains, including strains resistant to fusidic acid and to mupirocin (FIG. 1), read-out: MIC): ≤ 0.4 µg/mL
- concentration at which some inhibition was detected [3]: 1 µM
- concentration required for optimal activity [3]: 20 µM
- MIC (S. pyogenes strains; Streptococcus pyogenes, S. pyogenes strains, read-out: Mic100 S. pyogenes): ≤ 3 µg/mL and ≤ 3 µM
- MIC (S. pyogenes strains; against Streptococcus pyogenes strains (FIG. 1), read-out: MIC): ≤ 3.2 µg/mL
- mutation frequency at MIC×1 ([1]; MRSA 15): < 3×10^−8
- mutation frequency at MIC×1 ([1]; MRSA 16): < 1×10^−7
- mutational frequency at MIC×1 ([1]; all tested strains (MRSA 01, MRSA 15, MRSA 16), below the detection limit): < 4.10^−9
- Frequency of spontaneous mutations conferring resistance ([1]; concentration MIC × 1): <4 × 10^−9*
- Frequency of spontaneous mutations conferring resistance ([1]; concentration MIC × 2): <4 × 10^−9*
- Frequency of spontaneous mutations conferring resistance ([1]; concentration MIC × 4): <4 × 10^−9*
- Frequency of spontaneous mutations conferring resistance ([1]; concentration MIC × 10): <4 × 10^−9*
- LD50 [4]: > 1000 mg/kg
- MIC distribution (percentage of strains) [5, 8]: 25%
- MIC distribution (ratio of strains) [5, 8]: (1/4)
- MIC distribution (percentage of strains) [5, 9]: 25%
- MIC distribution (ratio of strains) [5, 9]: (1/4)
- MIC distribution (percentage of strains) [5, 10]: 25%
- MIC distribution (ratio of strains) [5, 10]: (1/4)
- MIC ([5]; Streptococcus pyogenes, all targeted S. pyogenes strains): ≤ 0.5 µg/mL
- effect on growth of P. aeruginosa (P. aeruginosa): does not affect the growth
- bacterial reduction (CFU in skin lesions) compared to control vehicles (MRSA 01 [6]): significant bacterial reductions
- bactericidal or bacteriostatic effect (time-kill curve) (MRSA 01 [7]): bacteriostatic effect

SMILES: C=C[C@]1(C)C[C@@H](OC(=O)CS[C@@H]2C[C@H]3CC[C@@H](C2)N3C)[C@]2(C)[C@H](C)CC[C@]3(CCC(=O)[C@H]32)[C@@H](C)[C@@H]1O [Retapamulin]
- Frequency of spontaneous mutations conferring resistance ([1]; concentration MIC × 1): ≥4.10^−5
- Frequency of spontaneous mutations conferring resistance ([1]; concentration MIC × 2): 3.10^−7
- Frequency of spontaneous mutations conferring resistance ([1]; concentration MIC × 4): 2.10^−8
- Frequency of spontaneous mutations conferring resistance ([1]; concentration MIC × 10): <4.10^−9*
